The values below come from patent US9006452B2, “Method for imaging zinc activation within a mitochondrion using a two-photon fluorescent probe, and method for manufacturing the two-photon fluorescent probe” (AJOU University Industry-Academic Cooperation Foundation, priority 2011, dated 2015).

Series [1] has as its system zinc ions within the mitochondria of HeLa cells. The experiment in a line: Two-photon microscopy monitoring of zinc ion changes in living HeLa cells. The class given is cell-based. How it is done: TPEF images were collected at a range from 425-575 nm (fs pulses, 760 nm excitation conditions);
When DTDP (2,2′-dithiodipyridine; […]), reagent capable of inducing dissociation of Zn^2+ ions from Zn^2+-binding proteins, was added to the HeLa cells labeled with the two-photon fluorescent probe (SZn-Mito), the TPEF intensity was increased. When CCCP (carbonyl cyanide m-chlorophenylhydrazone; […]), a compound capable of disrupting a transmembrane potential difference of the mitochondria and increasing the release of cations within the mitochondria, was added thereto, the TPEF intensity was decreased. Also, when the HeLa cells were treated with […] (2-mercaptopyridine N-oxide), a reagent capable of delivering Zn^2+ to the cytoplasm, the TPEF intensity was increased, and when they were treated with CCCP, the TPEF intensity was decreased (FIG. 1).

Series [2] is described as follows: Optical and physical properties of the two-photon fluorescent probe in MOPS buffer. The class given is physicochemical. To be noted: absence of Zn2+. How it is done:
In order to investigate optical and physical properties of the two-photon fluorescent probe (SZn-Mito), the following experiment was carried out by using a MOPS (3-(N-morpholino)propane sulfonic acid) buffer.
(§1) It was predicted as a result of blocking the photo-induced electron transfer (PeT) process caused by complexation with metal ions.

Series [3] deals with HeLa cells. The experiment in a line: Light stability of TPEF intensity in labeled HeLa cells. The class given is cell-based. To be noted: exposure 60 min.
Series [4] is described as follows: Selectivity for metal cations in MOPS buffer. The settings on record: MOPS buffer pH 7.2, 1.0 μM probe. It is filed as physicochemical. How it is done:
The selectivity for metal cations was determined by using the MOPS buffer (30 mM MOPS, 100 mM KCl, 10 mM EGTA, pH 7.2) including the two-photon fluorescent probe. […] However, because there are very little metal ions such as Co^2+, Ni^2+ and Cu^2+ inside the cells, the two-photon fluorescent probe of the present invention has an advantage that it can detect zinc ions (Zn^2+) without the interference caused by competition with other metal ions.

Series [5] in a line: One- and two-photon fluorescence titration with free Zn2+ (dissociation constant, fluorescence enhancement factor). The class given is binding. The procedure:
as §1
As a result of measuring a fluorescence increase factor (FEF=(F−Fmin)/Fmin) value of the two-photon fluorescent probe (SZn-Mito) by one- and two-photon processes, the FEF value was represented as 7 in the presence of excessive zinc ions (Table 1).
MOPS (4-morpholinepropanesulfonic acid) buffers (30 mM, pH 7.2, 0.1 M KCl) including varying amounts of ZnSO4 and 10 mM EGTA (ethylene glycol-bis(2-aminoethylether)-N,N,N′,N′-tetraacetic acid) were prepared.
The concentration of free Zn^2+ ([Zn^2+]free) was calculated from KZn-EGTA^app,[EGTA] total, and [Zn^2+]total by using following Equation 1:
After that, the stability constant of a Zn^2+ complex of EGTA (KZn-EGTA) was obtained by a conventional method known in the art. As a result, for EGTA (pH 7.2, 0.1 M KCl, 25[…]), pK1=9.40, pK2=8.79, pK3=2.70, and log KZn-EGTA=12.6 were obtained.
All protonation constants at 0.1 M ion strength workout were corrected upward by 0.11, [EGTA]total was fixed at 10 mM, and [Zn^2+]total was in the range from 0 to 9.5 mM.
In order to clearly determine a dissociation constant of the two-photon fluorescent probe, FIG. 2c as a fluorescence titration curve was obtained from FIG. 2b by using following Equation 2.
wherein F is a fluorescence intensity. Fmax is a maximum fluorescence intensity, Fo is a fluorescence intensity in the absence of Zn^2+, and [Zn^2+]free is a concentration of free Zn^2+.
Kd values that well complies with the titration curve (FIG. 2c) according to Equation 2 were calculated by using a commercial Origin software. […] A two-photon excitation fluorescence titration curve was obtained, which was fitted to Equation 2 (FIGS. 2c and 2d).

Series [6] is described as follows: Effect of pH on one-photon fluorescence intensity. The settings on record: physiological pH; absence and presence of free Zn2+. It is filed as physicochemical.
Series [7] deals with HeLa cells. The series can be described thus: Toxicity test using a CCK-8 kit. The class given is cell-based. An excerpt: In order to confirm whether the two-photon fluorescent probe of the present invention can detect intracellular zinc ions, the effect of the two-photon fluorescent probe (SZn-Mito) on the cells was examined by the following toxicity test.

For `CN(CC(=O)NCC[P+](c1ccccc1)(c1ccccc1)c1ccccc1)c1ccc2cc(-c3nc4ccc(NCCN(Cc5ccccn5)Cc5ccccn5)cc4s3)ccc2c1` [SZn-Mito], the “TPEF intensity after treatment with Zn2+ and pyrithione” value in series [1] (HeLa cells, 100 mM Zn2+ and 100 mM pyrithione) is reported as “increased”. Further, the “TPEF intensity after addition of CCCP” value in series [1] (labeled HeLa cells after DTDP, CCCP 10 mM) was “decreased”. Further, the “TPEF intensity after addition of DTDP” value in series [1] (labeled HeLa cells, DTDP 150 mM) is listed as “increased”. In addition, the “λmax(1), one-photon absorption spectra” value in series [2] (30 mM MOPS, 100 mM KCl, 10 mM EGTA, pH 7.2) turned out to be 388 nm. The “λmax fl, one-photon emission spectra” value in series [2] (MOPS buffer pH 7.2) stood at 500 nm. Moreover, in series [2] (MOPS buffer pH 7.2, value is 10^−4 ε), the “10^−4 ε, molar excitation coefficient” value turned out to be 1.87 M^−1cm^−1. In addition, in series [2] (MOPS buffer pH 7.2, ±15%), the “F, fluorescence quantum yield” value was determined as 0.15. In addition, the “change of TPEF intensity under continuous fs-pulse radiation (light stability)” value with HeLa cells [3] is reported as “not decreased at all”. Moreover, in series [4], the “fluorescence in the presence of Co2+, Ni2+ and Cu2+” value is recorded as “fluorescence was decreased”; the “selectivity for Cd2+” value was “relatively high selectivity for Cd^2+”; the “selectivity for Zn2+ compared with Na+, K+, Ca2+, Mg2+, Mn2+, Fe2+ and Fe3+” value is given as “higher selectivity for Zn^2+”. Besides, the “detection limit for Zn2+” value in series [5] (from fluorescence titration) was “nM range”. In series [5] (one-photon, presence of excessive zinc ions), the “FEF, fluorescence enhancement factor (F−Fmin)/Fmin, one-photon process” value came out at 7. Besides, in series [5] (two-photon, presence of excessive zinc ions), the “FEF, fluorescence enhancement factor (F−Fmin)/Fmin, two-photon process” value is on record as 7. Moreover, in series [6], the “reaction to pH (fluorescence intensity)” value is reported as “unreacted at physiological pH”. Further, the “toxicity to cells (CCK-8 kit)” value in the series with HeLa cells [7] is “negligible and extremely low toxicity”.
